Measured values reported in patent US20090214459A1, “METHOD OF USING CERTAIN CATIONIC POLYMERS AS ANTIOXIDANTS OR FREE-RADICAL SCAVENGERS” (priority 2008, published 2009).

Tested on: HaCaT keratinocytes exposed to UVA
Experiment: Antioxidant/free-radical scavenging activity with respect to UVA oxidative stress induced on keratinocytes (DCFH-DA fluorescent probe)
Assay type: cell-based
Settings: 30 μM, 24 hours pre-incubation, UVA 2 J/cm^2, DCF fluorescence
Procedure: Method for Evaluating the Antioxidant/Free-Radical Scavenging Activity of the Polymers of the Invention with Respect to a UVA Oxidative Stress Induced on Keratinocytes
The technique for evaluating the photoprotection was carried out according to a well-known method (J. of Photochemistry and Photobiology B: Biology 57 (2000) 102-112 TOBI et al: Glutathione modulates the level of free radicals produced in UVA irradiated cells). This technique used a fluorescent probe, a marker for intracellular global oxidative stress, 2′-7′-dichlorofluorescin diacetate (DCFH-DA).
The use of DCFH-DA as a marker of the oxidative stress rests on its physicochemical properties. It is an apolar and non-ionic molecule capable of diffusing through cell membranes. Once inside the cell, DCFH-DA will be hydrolysed by intracellular esterases to a non-fluorescent compound: DCFH or 2,7-dichlorofluorescin. In the presence of activated oxygen species, DCFH is rapidly oxidized to a highly fluorescent compound: DCF or 2,7-dichlorofluorescein.
Three compounds were tested: hexadimethrine chloride (MEXOMERE PO from Chimex corresponding to a polycondensate of formula (I)), citric acid and glycine (0.0001% w/v for the MEXOMERE PO, 30 μM for the citric acid and the glycine). […]
The fluorescence of DCF was evaluated immediately after the exposure to UVA, by spectrofluorimetry (excitation: 480 nm; emission: 530 nm).

Row | Structure (SMILES) | level of protection (antioxidant efficacy with respect to UVA oxidative stress) [%]
1 | NCC(=O)O [glycine] | ~15
2 | O=C(O)CC(O)(CC(=O)O)C(=O)O [Citric acid, citric acid] | ~18
